Where two headings read alike, the source gives them in different places.
Key:
[1] = target: T1, NCT (N- and C-terminal truncated trehalase) (Spodoptera frugiperda, UniProt Q0ZIF5, C-[…]/DEL1-102/LAST/RESIDUES/[…]); assay: glucose release assay, Lineweaver-Burk slope replots; format: biochemical
T1 sequence (Q0ZIF5 126-556): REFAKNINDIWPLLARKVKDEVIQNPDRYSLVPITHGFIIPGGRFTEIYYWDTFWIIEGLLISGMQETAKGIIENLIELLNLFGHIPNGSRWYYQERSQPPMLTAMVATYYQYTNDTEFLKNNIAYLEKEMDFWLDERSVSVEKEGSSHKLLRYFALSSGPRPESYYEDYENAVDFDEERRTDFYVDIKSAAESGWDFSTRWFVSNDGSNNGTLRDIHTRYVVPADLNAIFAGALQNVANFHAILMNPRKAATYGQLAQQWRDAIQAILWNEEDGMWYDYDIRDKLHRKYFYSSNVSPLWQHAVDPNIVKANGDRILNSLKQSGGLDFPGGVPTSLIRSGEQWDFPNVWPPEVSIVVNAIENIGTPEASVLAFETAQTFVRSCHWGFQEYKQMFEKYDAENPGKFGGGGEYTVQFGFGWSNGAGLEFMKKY

[2] = target: T2, WT (SfTre1, S. frugiperda midgut soluble trehalase, recombinant) (Spodoptera frugiperda, UniProt Q0ZIF5); assay: as above; format: biochemical
T2 sequence (Q0ZIF5 24-587): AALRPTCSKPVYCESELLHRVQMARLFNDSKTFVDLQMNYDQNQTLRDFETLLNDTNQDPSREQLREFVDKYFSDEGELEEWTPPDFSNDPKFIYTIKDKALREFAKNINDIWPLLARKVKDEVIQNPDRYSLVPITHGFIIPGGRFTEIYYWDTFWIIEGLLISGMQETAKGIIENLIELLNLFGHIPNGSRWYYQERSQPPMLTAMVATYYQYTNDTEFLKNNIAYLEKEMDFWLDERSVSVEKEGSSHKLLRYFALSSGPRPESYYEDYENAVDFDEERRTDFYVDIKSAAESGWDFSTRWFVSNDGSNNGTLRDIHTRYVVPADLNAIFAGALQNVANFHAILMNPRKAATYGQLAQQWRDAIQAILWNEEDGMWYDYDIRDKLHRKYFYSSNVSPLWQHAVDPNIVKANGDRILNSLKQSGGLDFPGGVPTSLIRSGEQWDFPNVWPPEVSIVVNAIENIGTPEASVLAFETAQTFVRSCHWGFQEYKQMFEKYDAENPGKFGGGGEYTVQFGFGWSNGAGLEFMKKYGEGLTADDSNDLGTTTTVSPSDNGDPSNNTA

[3] = target: T2, WT (SfTre1, S. frugiperda midgut soluble trehalase, recombinant); assay: as above; format: biochemical; remark: listed apart in the source
[4] = target: T1, NCT (N- and C-terminal truncated trehalase); assay: as above; format: biochemical; remark: listed apart in the source
[5] = target: T3, NT (N-terminal truncated trehalase) (Spodoptera frugiperda, UniProt Q0ZIF5, DEL1-102); assay: as above; format: biochemical
T3 sequence (Q0ZIF5 126-587): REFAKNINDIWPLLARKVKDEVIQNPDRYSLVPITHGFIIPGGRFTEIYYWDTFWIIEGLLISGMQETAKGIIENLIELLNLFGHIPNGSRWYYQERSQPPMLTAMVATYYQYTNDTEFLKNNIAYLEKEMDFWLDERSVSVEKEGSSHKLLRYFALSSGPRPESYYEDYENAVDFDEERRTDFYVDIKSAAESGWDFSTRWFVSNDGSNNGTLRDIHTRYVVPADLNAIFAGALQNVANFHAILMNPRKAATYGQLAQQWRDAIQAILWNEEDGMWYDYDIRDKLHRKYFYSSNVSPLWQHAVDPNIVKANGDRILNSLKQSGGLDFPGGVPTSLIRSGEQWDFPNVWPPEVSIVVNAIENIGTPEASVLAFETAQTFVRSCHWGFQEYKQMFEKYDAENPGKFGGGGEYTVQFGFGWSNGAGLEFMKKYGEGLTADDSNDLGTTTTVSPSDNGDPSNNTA

[6] = target: T4, NCT (N- and C-terminal truncated trehalase) (Spodoptera frugiperda, UniProt Q0ZIF5); assay: as above; format: biochemical; details: read-out: Enzyme / NCT; competitive; substrate trehalose 0.2-2 mM; pH 6.0, 30 °C
T4 sequence (Q0ZIF5 126-556): T1 sequence (Q0ZIF5 126-556)

[7] = target: T5, NT (N-terminal truncated trehalase) (Spodoptera frugiperda, UniProt Q0ZIF5); assay: as above; format: biochemical; details: read-out: Enzyme / NT; competitive; substrate trehalose 0.2-2 mM; pH 6.0, 30 °C
T5 sequence (Q0ZIF5 126-587): T3 sequence (Q0ZIF5 126-587)

[8] = substrate: OC[C@H]1O[C@H](O[C@H]2O[C@H](CO)[C@@H](O)[C@H](O)[C@H]2O)[C@H](O)[C@@H](O)[C@@H]1O; assay: purified protein; details: pH 6.0 citrate-sodium phosphate, 30 °C

OC[C@H]1NC[C@H](O)[C@@H](O)[C@@H]1O [1-deoxynojirimycin]
Ki [1]: 800 ± 200 nM
Ki [2]: 0.001 ± 0.00024 mM

N#C[C@H](O[C@@H]1O[C@H](CO[C@@H]2O[C@H](CO)[C@@H](O)[C@H](O)[C@H]2O)[C@@H](O)[C@H](O)[C@H]1O)c1ccccc1 [amygdalin]
Ki [3]: 280 ± 70 µM
Ki [4]: 490 ± 90 µM
Ki [5]: 400 ± 100 µM

COC1OC(CO)C(O)C(O)C1O (stereo not drawn) [methyl α-mannoside]
Ki [6]: 16 ± 1 mM
Ki ([2]; read-out: Enzyme / WT, competitive, substrate trehalose 0.2-2 mM, pH 6.0, 30 °C): 17 ± 1 mM
Ki [7]: 17 ± 2 mM

B1: WT (SfTre1, S. frugiperda midgut soluble trehalase, recombinant) (Spodoptera frugiperda) (protein)
chain: T2 sequence (Q0ZIF5 24-587)
kcat/Km [8]: 74500 M⁻¹ s⁻¹

— paper PMC5668925 (Biochemistry and Biophysics Reports, 2015)
